Like-named read-outs stand apart in the source and are kept apart here. Marks after values point to notes of the source that are not given here.
Legend:
[1] = ref PharmaPendium, cited from earlier work
[2] = test system: hiPSC-derived neurons co-cultured with human primary astrocytes in 2D; test: Ca2+ transient oscillation assay (FDSS), 2D co-culture; format: cell-based; conditions: for effect on peak number / Ca2+ neuronal oscillations, in words: 2D format; for activation at 3.7 µM / activation at 11.11 µM / activation at 33.33 µM / activation at 100 µM / activation at 300 µM: Homo sapiens, 1 h, 60 min
How it was run: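 hiPSC-derived excitatory neurons (CW50065, Quick-Neuron EX-SeV) co-cultured with human primary astrocytes at 4:1 (10,000:2500 cells per well). Cal-520-loaded cells in HBSS with 2 mM CaCl2 and 10 mM HEPES were pretreated with 0.04% DMSO.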

[3] = test system: hiPSC-derived neurons co-cultured with human primary astrocytes in 3D; test: Ca2+ transient oscillation assay (FDSS), 3D spheroids; format: cell-based; conditions: 60 min
How it was run: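 Fura-2 fluorescence was read twice for 20 min each: a baseline 10 min after 0.04% DMSO, and again 60 min after compound addition at nominal final concentration. The 3D co-cultures (1:1 hiPSC neurons from a donor and human astrocytes, 8000 each) matured 5 weeks in BrainPhys medium after a 1-week differentiation.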

[4] = Table 1, peak plasma concentration in men, free therapeutic Cmax
[5] = Table 2, highest plasma concentration in humans after the therapeutic dose
[6] = read-out: Area under the curve - 2D Mean
[7] = read-out: Peak amplitude - 2D Mean
[8] = read-out: Peak-to-peak interval - 2D Mean

SMILES: NCCc1c[nH]c2ccc(O)cc12 [Serotonin]
- Free Cmax [1, 4]: 1 to 2 µM
- Free Cmax [1, 5]: 1 to 2 µM
- effect on peak number / Ca2+ neuronal oscillations, in words [2]: significantly reduced peak number
- activation at 3.7 µM [2, 6]: 12.8%
- activation at 3.7 µM ([2]; read-out: Peak Number—2D Mean): -23.4%
- activation at 3.7 µM [2, 7]: -4.9%
- activation at 3.7 µM ([2]; read-out: Peak width - 2D Mean): 17.3%
- activation at 3.7 µM [2, 8]: 28.4%
- activation at 11.11 µM [2, 6]: 11.1%
- activation at 11.11 µM ([2]; read-out: Peak Number—2D Mean): -1.7%
- activation at 11.11 µM [2, 7]: -13.7%
- activation at 11.11 µM ([2]; read-out: Peak width - 2D Mean): 18.3%
- activation at 11.11 µM [2, 8]: 65.8%
- activation at 33.33 µM [2, 6]: -8.9%
- activation at 33.33 µM ([2]; read-out: Peak Number—2D Mean): -43.8%
- activation at 33.33 µM [2, 7]: -27.1%
- activation at 33.33 µM ([2]; read-out: Peak width - 2D Mean): -1.4%
- activation at 33.33 µM [2, 8]: 36.4%
- activation at 100 µM [2, 6]: -2.6%
- activation at 100 µM ([2]; read-out: Peak Number—2D Mean): -45.8%
- activation at 100 µM [2, 7]: -16.6%
- activation at 100 µM ([2]; read-out: Peak width - 2D Mean): 11.4%
- activation at 100 µM [2, 8]: 55.3%
- Area under the curve - 3D Mean ([3]; 3.7 µM): −19.4 % change from baseline
- Peak Number—3D Mean ([3]; 3.7 µM): −70.7 ** % change from baseline
- Peak amplitude - 3D Mean ([3]; 3.7 µM): −4.3 % change from baseline
- Peak width - 3D Mean ([3]; 3.7 µM): −54.0 % change from baseline
- Peak-to-peak interval - 3D Mean ([3]; 3.7 µM): −58.0 % change from baseline
- Area under the curve - 3D Mean ([3]; 11.11 µM): 19.8 % change from baseline
- Peak Number—3D Mean ([3]; 11.11 µM): −69.1 ** % change from baseline
- Peak amplitude - 3D Mean ([3]; 11.11 µM): 33.7 % change from baseline
- Peak width - 3D Mean ([3]; 11.11 µM): −31.8 % change from baseline
- Peak-to-peak interval - 3D Mean ([3]; 11.11 µM): −37.9 % change from baseline
- Area under the curve - 3D Mean ([3]; 33.33 µM): −21.3 % change from baseline
- Peak Number—3D Mean ([3]; 33.33 µM): −82.1 ** % change from baseline
- Peak amplitude - 3D Mean ([3]; 33.33 µM): −3.1 % change from baseline
- Peak width - 3D Mean ([3]; 33.33 µM): −52.3 % change from baseline
- Peak-to-peak interval - 3D Mean ([3]; 33.33 µM): 29.2 % change from baseline
- Area under the curve - 3D Mean ([3]; 100 µM): −21.1 % change from baseline
- Peak Number—3D Mean ([3]; 100 µM): −80.3 ** % change from baseline
- Peak amplitude - 3D Mean ([3]; 100 µM): −10.3 % change from baseline
- Peak width - 3D Mean ([3]; 100 µM): −55.4 % change from baseline
- Peak-to-peak interval - 3D Mean ([3]; 100 µM): −82.0 % change from baseline

SMILES: Cn1c(=O)c2[nH]cnc2n(C)c1=O [Theophylline]
- Free Cmax [1, 4]: 8 to 15 µM
- Free Cmax [1, 5]: 8 to 15 µM
- effect on peak number / Ca2+ neuronal oscillations, in words [2]: significantly increased peak number
- activation at 11.11 µM [2, 6]: 32.3%
- activation at 11.11 µM ([2]; read-out: Peak Number—2D Mean): -5.7%
- activation at 11.11 µM [2, 7]: 12.7%
- activation at 11.11 µM ([2]; read-out: Peak width - 2D Mean): 22.8%
- activation at 11.11 µM [2, 8]: 24.3%
- activation at 33.33 µM [2, 6]: 41.7%
- activation at 33.33 µM ([2]; read-out: Peak Number—2D Mean): 24.7%
- activation at 33.33 µM [2, 7]: 15.3%
- activation at 33.33 µM ([2]; read-out: Peak width - 2D Mean): 31.2%
- activation at 33.33 µM [2, 8]: -5.2%
- activation at 100 µM [2, 6]: 29.7%
- activation at 100 µM ([2]; read-out: Peak Number—2D Mean): 39.3%
- activation at 100 µM [2, 7]: 10%
- activation at 100 µM ([2]; read-out: Peak width - 2D Mean): 24.3%
- activation at 100 µM [2, 8]: -26.3%
- activation at 300 µM [2, 6]: 72.8%
- activation at 300 µM ([2]; read-out: Peak Number—2D Mean): 118%
- activation at 300 µM [2, 7]: 6%
- activation at 300 µM ([2]; read-out: Peak width - 2D Mean): 113%
- activation at 300 µM [2, 8]: -46.8%
- Area under the curve - 3D Mean ([3]; 11.11 µM): 156.1 % change from baseline
- Peak Number—3D Mean ([3]; 11.11 µM): 2.0 % change from baseline
- Peak amplitude - 3D Mean ([3]; 11.11 µM): 121.2 % change from baseline
- Peak width - 3D Mean ([3]; 11.11 µM): 11.1 % change from baseline
- Peak-to-peak interval - 3D Mean ([3]; 11.11 µM): −4.0 % change from baseline
- Area under the curve - 3D Mean ([3]; 33.33 µM): 171.1 % change from baseline
- Peak Number—3D Mean ([3]; 33.33 µM): 53.5 * % change from baseline
- Peak amplitude - 3D Mean ([3]; 33.33 µM): 142.1 % change from baseline
- Peak width - 3D Mean ([3]; 33.33 µM): 12.2 % change from baseline
- Peak-to-peak interval - 3D Mean ([3]; 33.33 µM): −21.2 % change from baseline
- Area under the curve - 3D Mean ([3]; 100 µM): 148.8 % change from baseline
- Peak Number—3D Mean ([3]; 100 µM): 78.1 * % change from baseline
- Peak amplitude - 3D Mean ([3]; 100 µM): 99.6 % change from baseline
- Peak width - 3D Mean ([3]; 100 µM): 21.3 % change from baseline
- Peak-to-peak interval - 3D Mean ([3]; 100 µM): −37.1 % change from baseline
- Area under the curve - 3D Mean ([3]; 300 µM): 134.2 % change from baseline
- Peak Number—3D Mean ([3]; 300 µM): 114.2 * % change from baseline
- Peak amplitude - 3D Mean ([3]; 300 µM): 89.4 % change from baseline
- Peak width - 3D Mean ([3]; 300 µM): 29.3 % change from baseline
- Peak-to-peak interval - 3D Mean ([3]; 300 µM): −45.7 % change from baseline

— paper PMC10046961, “High-Throughput Screening Assay for Detecting Drug-Induced Changes in Synchronized Neuronal Oscillations and Potential Seizure Risk Based on Ca^2+ Fluorescence Measurements in Human Induced Pluripotent Stem Cell (hiPSC)-Derived Neuronal 2D and 3D Cultures” (Cells, 2023)
